What was measured:
[1] = tested on: BT-474 Tam1; experiment: drug sensitivity score (DSS) (DSS (dimensionless)); higher = more sensitive; extreme values may be limits of the assay; conditions: 4-OH-tamoxifen in medium 1 µM; 72 h
Experimental: (§1)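 FIMM FO2B library drugs were tested at 5 concentrations (10,000-fold range) for 72 h, with CellTiter-Glo viability normalised to DMSO and benzethonium chloride controls. The Drug Sensitivity Score (DSS) is computed from the fitted logistic dose-response curve (area-based; 0 = inactive). Resistant lines and the 'in 1µM tamoxifen' arms were tested in 1 µM 4-OH-tamoxifen.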

[2] = tested on: BT-474 Tam2; experiment: as above; conditions: 4-OH-tamoxifen in medium 1 µM; 72 h
Experimental: as §1

[3] = tested on: BT-474; experiment: as above; conditions: 72 h
Experimental: as §1

[4] = tested on: MCF-7 Tam1; experiment: as above; conditions: 4-OH-tamoxifen in medium 1 µM; 72 h
Experimental: as §1

[5] = tested on: MCF-7; experiment: as above; conditions: 72 h
Experimental: as §1

[6] = tested on: T-47D Tam1; experiment: as above; conditions: 4-OH-tamoxifen in medium 1 µM; 72 h
Experimental: as §1

[7] = tested on: T-47D Tam2; experiment: as above; conditions: 4-OH-tamoxifen in medium 1 µM; 72 h
Experimental: as §1

[8] = tested on: T-47D; experiment: as above; conditions: 72 h
Experimental: as §1

[9] = tested on: ZR-75-1 Tam1; experiment: as above; conditions: 4-OH-tamoxifen in medium 1 µM; 72 h
Experimental: as §1

[10] = tested on: ZR-75-1 Tam2; experiment: as above; conditions: 4-OH-tamoxifen in medium 1 µM; 72 h
Experimental: as §1

[11] = tested on: ZR-75-1; experiment: as above; conditions: 72 h
Experimental: as §1

[12] = tested on: BT-474 Tam1; experiment: relative IC50 (midpoint of fitted logistic curve, plateau may be below 50% inhibition; CellTiter-Glo viability); higher = less potent; conditions: 4-OH-tamoxifen in medium 1 µM; 72 h
Experimental: (§2)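 FIMM FO2B library drugs were plated at 5 concentrations spanning a 10,000-fold range in 384-well plates. Cells were incubated for 72 h at 37 °C and viability was read by CellTiter-Glo, normalised to DMSO (0% inhibition) and 100 µM benzethonium chloride (100% inhibition). IC50 values come from logistic dose-response fits (Breeze pipeline). Tamoxifen-resistant lines and the 'in 1µM tamoxifen' parental arms were tested in medium with 1 µM 4-OH-tamoxifen.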

[13] = tested on: BT-474 Tam2; experiment: as above; conditions: 4-OH-tamoxifen in medium 1 µM; 72 h
Experimental: as §2

[14] = tested on: BT-474; experiment: as above; conditions: 72 h
Experimental: as §2

[15] = tested on: MCF-7 Tam1; experiment: as above; conditions: 4-OH-tamoxifen in medium 1 µM; 72 h
Experimental: as §2

[16] = tested on: MCF-7; experiment: as above; conditions: 72 h
Experimental: as §2

[17] = tested on: T-47D Tam1; experiment: as above; conditions: 4-OH-tamoxifen in medium 1 µM; 72 h
Experimental: as §2

[18] = tested on: T-47D; experiment: as above; conditions: 72 h
Experimental: as §2

[19] = tested on: ZR-75-1 Tam1; experiment: as above; conditions: 4-OH-tamoxifen in medium 1 µM; 72 h
Experimental: as §2

[20] = tested on: ZR-75-1 Tam2; experiment: as above; conditions: 4-OH-tamoxifen in medium 1 µM; 72 h
Experimental: as §2

[21] = tested on: ZR-75-1; experiment: as above; conditions: 72 h
Experimental: as §2

| relative IC50 [12] | relative IC50 [13] | relative IC50 ([14]; 4-OH-tamoxifen in medium 0 µM) | relative IC50 ([14]; 4-OH-tamoxifen in medium 1 µM) | relative IC50 [15] | relative IC50 [17] | relative IC50 ([18]; 4-OH-tamoxifen in medium 0 µM) | relative IC50 ([18]; 4-OH-tamoxifen in medium 1 µM) | relative IC50 ([16]; 4-OH-tamoxifen in medium 1 µM) | SMILES | drug sensitivity score [1] | drug sensitivity score [2] | drug sensitivity score ([3]; 4-OH-tamoxifen in medium 0 µM) | drug sensitivity score ([3]; 4-OH-tamoxifen in medium 1 µM) | drug sensitivity score [4] | drug sensitivity score ([5]; 4-OH-tamoxifen in medium 0 µM) | drug sensitivity score ([5]; 4-OH-tamoxifen in medium 1 µM) | drug sensitivity score [6] | drug sensitivity score [7] | drug sensitivity score ([8]; 4-OH-tamoxifen in medium 0 µM) | drug sensitivity score ([8]; 4-OH-tamoxifen in medium 1 µM) | drug sensitivity score [9] | drug sensitivity score [10] | drug sensitivity score ([11]; 4-OH-tamoxifen in medium 0 µM) | drug sensitivity score ([11]; 4-OH-tamoxifen in medium 1 µM) | relative IC50 ([16]; 4-OH-tamoxifen in medium 0 µM) | relative IC50 [19] | relative IC50 [20] | relative IC50 ([21]; 4-OH-tamoxifen in medium 0 µM) | relative IC50 ([21]; 4-OH-tamoxifen in medium 1 µM) |
| --- | --- | --- | --- | --- | --- | --- | --- | --- | --- | --- | --- | --- | --- | --- | --- | --- | --- | --- | --- | --- | --- | --- | --- | --- | --- | --- | --- | --- | --- |
| > 50 µM | > 50 µM | > 50 µM | > 50 µM | > 50 µM | > 50 µM | > 50 µM | > 50 µM | > 50 µM | O=S(=O)(c1cccc2cnccc12)N1CCCNCC1 [Fasudil  (HA-1077)] | 6.87 | 6.54 | 1.03 | 5.24 | 0 | 0.328 | 0 | 1.67 | 1.06 | 0 | 0.739 | 0 | 0 | 0 | 0 |  | > 50 µM | > 50 µM | > 50 µM | > 50 µM |
| > 10 µM | > 10 µM | > 10 µM | > 10 µM | > 10 µM | > 10 µM | > 10 µM | > 10 µM |  | CC(C)C(=O)Nc1ccc([N+](=O)[O-])c(C(F)(F)F)c1 [Flutamide] | 0 | 0 | 0 | 0 | 0 | 0 | 0.814 | 0 | 0.0387 | 0 | 0 | 0 | 0 | 0 | 0 | > 10 µM | > 10 µM | > 10 µM | > 10 µM | > 10 µM |

| SMILES | relative IC50 [12] | relative IC50 [13] | relative IC50 ([14]; 4-OH-tamoxifen in medium 0 µM) | relative IC50 ([14]; 4-OH-tamoxifen in medium 1 µM) | relative IC50 [15] | relative IC50 [17] | relative IC50 ([18]; 4-OH-tamoxifen in medium 0 µM) | relative IC50 ([18]; 4-OH-tamoxifen in medium 1 µM) | relative IC50 ([16]; 4-OH-tamoxifen in medium 1 µM) | drug sensitivity score [1] | drug sensitivity score [2] | drug sensitivity score ([3]; 4-OH-tamoxifen in medium 0 µM) | drug sensitivity score ([3]; 4-OH-tamoxifen in medium 1 µM) | drug sensitivity score [4] | drug sensitivity score ([5]; 4-OH-tamoxifen in medium 0 µM) | drug sensitivity score ([5]; 4-OH-tamoxifen in medium 1 µM) | drug sensitivity score [6] | drug sensitivity score [7] | drug sensitivity score ([8]; 4-OH-tamoxifen in medium 0 µM) | drug sensitivity score ([8]; 4-OH-tamoxifen in medium 1 µM) | drug sensitivity score [9] | drug sensitivity score [10] | drug sensitivity score ([11]; 4-OH-tamoxifen in medium 0 µM) | drug sensitivity score ([11]; 4-OH-tamoxifen in medium 1 µM) | relative IC50 ([16]; 4-OH-tamoxifen in medium 0 µM) | relative IC50 [19] | relative IC50 [20] | relative IC50 ([21]; 4-OH-tamoxifen in medium 0 µM) | relative IC50 ([21]; 4-OH-tamoxifen in medium 1 µM) |
| --- | --- | --- | --- | --- | --- | --- | --- | --- | --- | --- | --- | --- | --- | --- | --- | --- | --- | --- | --- | --- | --- | --- | --- | --- | --- | --- | --- | --- | --- |
| O=P1(N(CCCl)CCCl)NCCCO1 (centres undefined) [Clafen (Cyclophosphamide, Endoxan)] | > 40 µM | > 40 µM | > 40 µM | > 40 µM | > 40 µM | > 40 µM | > 40 µM | > 40 µM |  | 0 | 0 | 0 | 0 | 0 | 0 | 0.034 | 0 | 0.114 | 0 | 0 | 0 | 0 | 0 | 0 | > 40 µM | > 40 µM | > 40 µM | > 40 µM | > 40 µM |
